The values below come from US10385069B2, “Imidazo[2,1-B]thiazole and 5,6-dihydroimidazo[2,1-B]thiazole derivatives useful as S100-inhibitors” (Active Biotech AB, priority 2015, dated 2019).

pIC50: −log10 of the molar value.

For this assay, the target named is T1, interaction between biotinylated human S100A9 and human RAGE-Fc (Homo sapiens, UniProt P06702).
T1 construct: made in house; host or cells: E. coli
T1 sequence (P06702 1-114): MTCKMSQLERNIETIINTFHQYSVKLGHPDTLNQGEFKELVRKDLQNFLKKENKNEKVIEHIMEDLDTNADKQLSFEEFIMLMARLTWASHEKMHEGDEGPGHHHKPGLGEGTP
In words: AlphaScreen inhibition assay, biot-hS100A9:hRAGE-Fc. Type of assay: binding. The conditions noted are these: biot-hS100A9 pre-incubated with compound 1 h, assay buffer with CaCl2 and ZnCl2. An excerpt: Inhibition Assay, Biot-hS100A9:hRAGE-Fc
The AlphaScreen (Amplified Luminescent Proximity Homogeneous Assay) contains two types of beads, Alpha Donor beads and Acceptor beads (PerkinElmer). Upon laser excitation at 680 nm a photosensitizer in the Donor bead converts ambient oxygen to a more excited singlet state. The singlet oxygen molecule diffuses (maximum 200 nm) to react with a thioxene derivative in the Acceptor bead and generates a chemiluminescence reaction. Fluorophores in the Acceptor bead subsequently emit light at 520-620 nm which can be detected in the EnVision® Multilabel plate Reader (PerkinElmer). The beads are light sensitive and all work with the beads is performed under subdued light conditions or using green filters on light sources (Roscolux Chroma Green #389, Rosco).
In the AlphaScreen Inhibition Assay described here, protein A (Staphylococcus aureus) conjugated Acceptor beads are used together with streptavidin coated Donor beads (Perkin Elmer 6760617M). The Acceptor beads are pre-incubated with Fc-tagged recombinant human RAGE (rhRAGE-Fc) allowing binding of the rhRAGE-Fc to protein A on the beads. Biotinylated human S100A9 (biot-hS100A9) is pre-incubated with the low molecular test compounds. The pre-mixes are then added to the wells of a micro-plate and incubated allowing interaction between biot-hS100A9 and rhRAGE-Fc. Subsequent addition of streptavidin coated Donor beads causes binding of the streptavidin to the biotinylated hS100A9. After an additional incubation the signal is measured.
Without inhibitory compounds, the interaction of biot-hS100A9 to rhRAGE-Fc will bring the Acceptor and Donor beads in close proximity thus generating a high signal. With an inhibitor present the complex will not form resulting in a decreased signal. The assay is illustrated in FIG. 1.
Chemicals and Reagents. • AlphaScreen® General IgG (Protein A) Detection Kit, (PerkinElmer 6760617M) • HBS-P buffer (GE Healthcare, BR-1003-68) • HBS-N buffer (GE Healthcare, BR-1003-69) • CaCl2 in HBS-P • ZnCl2 in Milli-Q water • DMSO • Biotinylated hS100A9, (biotinylated via cystein by EZ-link Iodoacetyl-PEG2-Biotin reagent (Pierce no. 21334), in HBS-N • rhRAGE-Fc (R&D Systems, 1145-RG-50), in HBS-P
The AlphaScreen assay method is used for screening of the inhibitory effect of different compound samples at fixed concentrations or for IC50 determination by varying the compound concentrations. Samples of test compounds and references are prepared from solutions in DMSO. Relevant reference inhibitors and DMSO are used as controls for defined inhibition and non-inhibition, respectively in the assay. The percent inhibition in assay for test compounds and references are calculated by comparing their obtained assay signals with the signal values for the control with only DMSO (no compound).
Assay concentration of biotinylated hS100A9 and rhRAGE-Fc are batch dependent, and are determined and defined by separate cross-titration experiments using this AlphaScreen inhibition method to verify the optimal setup regarding signal strength and achievement of a defined inhibition with relevant reference compounds. The Final assay concentrations of Acceptor and Donor beads are 20 μg/mL.
Assay buffer is prepared by adding CaCl2 and ZnCl2 to HBS-P and is used freshly prepared in the experiment.
Biotin-hS100A9 solution for the experiment is prepared by dilution of appropriate amount of stock solution biot-hS100A9 in assay buffer (with CaCl2 and ZnCl2) and incubation in room temperature for 30 minutes.
rhRAGE-Fc solution for the experiment is prepared by dilution appropriate amount of rhRAGE-Fc stock in assay buffer.
Protein A Acceptor beads are diluted in assay buffer and are added to an equal volume of the prepared diluted rhRAGE-Fc solution. The beads are light sensitive. The vial is covered with aluminum foil and incubated at room temperature in the dark until biot-hS100A9+compound incubation is finished (see below). […]
For the molecule `CC(C)(C)C1CCc2c(sc3nc(C(=O)O)c(CN4CCOCC4)n23)C1` (centres unmarked) [Example 242, 10-tert-Butyl-3-(morpholin-4-ylmethyl)-7-thia-2,5-diazatricyclo[6.4.0.0^2,6]dodeca-1(8),3,5-triene-4-carboxylic acid], the pIC50 was 5.86.
Regarding `CC(C)(C)C1CCc2c(sc3nc(C(=O)O)c(CN4CCCCC4=O)n23)C1` (centres unmarked) [Example 244, 10-tert-Butyl-3-[(2-oxopiperidin-1-yl)methyl]-7-thia-2,5-diazatricyclo[6.4.0.0^2,6]dodeca-1(8),3,5-triene-4-carboxylic acid], the pIC50 is 5.95.
Then `CC(C)(C)C1CCc2c(sc3nc(C(=O)NC#N)cn23)C1` (centres unmarked) [Example 58, 10-tert-Butyl-N-cyano-7-thia-2,5-diazatricyclo[6.4.0.0^2,6]dodeca-1(8),3,5-triene-4-carboxamide], with 6.19; and `CC(C)(C)C1CCc2c(sc3nc(C(=O)NS(C)(=O)=O)cn23)C1` (centres unmarked) [Example 47, 10-tert-Butyl-N-methanesulfonyl-7-thia-2,5-diazatricyclo[6.4.0.0^2,6]dodeca-1(8),3,5-triene-4-carboxamide], with 6.47.
Then `CC(C)(C)C1CCc2c(sc3nc(C(=O)O)c(NCc4ccccc4)n23)C1` (centres unmarked) [Example 42, 3-(Benzylamino)-10-tert-butyl-7-thia-2,5-diazatricyclo[6.4.0.0^2,6]dodeca-1(8),3,5-triene-4-carboxylic acid], with 5.98.
Turning to `CC(C)(C)Nc1c(C(=O)O)nc2sc3c(n12)CCC(C(C)(C)C)C3` (centres unmarked) [Example 40, 10-tert-Butyl-3-(tert-butylamino)-7-thia-2,5-diazatricyclo[6.4.0.0^2,6]dodeca-1(8),3,5-triene-4-carboxylic acid], the pIC50 was 6.34.
As for `O=C(O)c1cn2c3c(sc2n1)-c1ccccc1CC3` [Example 41, 16-Thia-11,14-diazatetracyclo[8.6.0.0^2,7.0^11,15]hexadeca-1 (10),2(7),3,5,12,14-hexaene-13-carboxylic acid], the figure is 6.44.
For `O=C(NS(=O)(=O)c1ccccc1)C1CN2C(=N1)Sc1c2ccc(F)c1Cl` (centres unmarked) [Example 278, N-(Benzenesulfonyl)-9-chloro-10-fluoro-7-thia-2,5-diazatricyclo[6.4.0.0^2,6]dodeca-1(8),5,9,11-tetraene-4-carboxamide], the pIC50 was 6.77.
As for `CC(C)(C)C1CCc2c(sc3nc(C(=O)O)c(CO)n23)C1` (centres unmarked) [Example 256, 10-tert-Butyl-3-(hydroxymethyl)-7-thia-2,5-diazatricyclo[6.4.0.0^2,6]dodeca-1(8),3,5-triene-4-carboxylic acid], the pIC50 was 6.30.
On to `O=C(O)c1cn2c(n1)sc1c(F)c(Cl)c(OCCN3CCOCC3)cc12` [Example 289, 10-Chloro-9-fluoro-11-[2-(morpholin-4-yl)ethoxy]-7-thia-2,5-diazatricyclo[6.4.0.0^2,6]dodeca-1(8),3,5,9,11-pentaene-4-carboxylic acid], for which the pIC50 was 6.09.
For `O=C(O)C1CN2C(=N1)Sc1c2ccc(Br)c1Cl` (centres unmarked) [Example 240, 10-Bromo-9-chloro-7-thia-2,5-diazatricyclo[6.4.0.0^2,6]dodeca-1(8),5,9,11-tetraene-4-carboxylic acid], the negative logarithm of the IC50 (pIC50) was 6.37.
For the molecule `O=C(O)c1nc2sc3c(Cl)c(F)ccc3n2c1N1CCOCC1` [Example 238, 9-Chloro-10-fluoro-3-(morpholin-4-yl)-7-thia-2,5-diazatricyclo[6.4.0.0^2,6]dodeca-1(8),3,5,9,11-pentaene-4-carboxylic acid], the pIC50 is 6.70.
`O=C(O)c1cn2c(n1)sc1cc(Br)ccc12` [Example 13, 10-Bromo-7-thia-2,5-diazatricyclo[6.4.0.0^2,6]dodeca-1(8),3,5,9,11-pentaene-4-carboxylic acid]: the pIC50 was 5.89.
Then `O=C(O)c1cn2c(n1)sc1cc(SC(F)(F)F)ccc12` [Example 201, 10-[(Trifluoromethyl)sulfanyl]-7-thia-2,5-diazatricyclo[6.4.0.0^2,6]dodeca-1(8),3,5,9,11-pentaene-4-carboxylic acid], with 5.83; and `CC1(C)CCc2c(sc3nc(C(=O)O)cn23)C1` [Example 33, 10,10-Dimethyl-7-thia-2,5-diazatricyclo[6.4.0.0^2,6]dodeca-1(8),3,5-triene-4-carboxylic acid], with 6.08.
For the molecule `O=C(O)c1nc2sc3c(Cl)c(F)ccc3n2c1C1CNC1` [Example 281, 3-(Azetidin-3-yl)-9-chloro-10-fluoro-7-thia-2,5-diazatricyclo[6.4.0.0^2,6]dodeca-1(8),3,5,9,11-pentaene-4-carboxylic acid], the negative logarithm of the IC50 (pIC50) was 5.74.
Then `CC(=O)N1CCN(Cc2c(C(=O)O)nc3sc4c(n23)CCC(C(C)(C)C)C4)CC1` (centres unmarked) [Example 275, 3-[(4-Acetylpiperazin-1-yl)methyl]-10-tert-butyl-7-thia-2,5-diazatricyclo[6.4.0.0^2,6]dodeca-1(8),3,5-triene-4-carboxylic acid], with 5.96.
As for `C[C@]1(C(=O)O)CN2C(=N1)Sc1c2ccc(F)c1Cl` (single isomer, unassigned) [Example 279a], the figure is 6.77.
As to `O=C(O)Cc1cn2c(n1)sc1c(Cl)c(Cl)ccc12` [Example 19, 2-{9,10-Dichloro-7-thia-2,5-diazatricyclo[6.4.0.0^2,6]dodeca-1(8),3,5,9,11-pentaen-4-yl}acetic acid], the pIC50 is 6.14.
Then `O=C(O)C1CN2C(=N1)Sc1c2cc(OCCN2CCOCC2)c(Cl)c1Cl` (centres unmarked) [Example 285, 9,10-Dichloro-11-[2-(morpholin-4-yl)ethoxy]-7-thia-2,5-diazatricyclo[6.4.0.0^2,6]dodeca-1(8),5,9,11-tetraene-4-carboxylic acid], with 5.90; and `CC(C)(C)C1CCc2c(sc3nc(C(=O)O)cn23)C1` (centres unmarked) [Example 35, 10-tert-Butyl-7-thia-2,5-diazatricyclo[6.4.0.0^2,6]dodeca-1(8),3,5-triene-4-carboxylic acid], with 6.35.
As for `O=C(NS(=O)(=O)C(F)(F)F)c1cn2c(n1)sc1c(Cl)c(Cl)ccc12` [Example 26, 9,10-Dichloro-N-trifluoromethanesulfonyl-7-thia-2,5-diazatricyclo[6.4.0.0^2,6]dodeca-1(8),3,5,9,11-pentaene-4-carboxamide], the pIC50 was 6.38.
As for `CS(=O)(=O)NC(=O)c1cn2c(n1)sc1c(Cl)c(Cl)ccc12` [Example 21, 9,10-Dichloro-N-methanesulfonyl-7-thia-2,5-diazatricyclo[6.4.0.0^2,6]dodeca-1(8),3,5,9,11-pentaene-4-carboxamide], the figure is 6.74; as for `O=C(O)c1cn2c(n1)sc1cc(Cl)cc(Cl)c12` [Example 16, 10,12-Dichloro-7-thia-2,5-diazatricyclo[6.4.0.0^2,6]dodeca-1(8),3,5,9,11-pentaene-4-carboxylic acid], 5.80; as for `CC1(C)Cc2c(sc3nc(C(=O)O)c(C4CNC4)n23)C(C)(C)C1` [Example 235, 3-(Azetidin-3-yl)-9,9,11,11-tetramethyl-7-thia-2,5-diazatricyclo[6.4.0.0^2,6]dodeca-1(8),3,5-triene-4-carboxylic acid], 5.77.
As for `CC1(C)Cc2c(sc3nc(C(=O)O)cn23)C(C)(C)C1` [Example 32, 9,9,11,11-Tetramethyl-7-thia-2,5-diazatricyclo[6.4.0.0^2,6]dodeca-1(8),3,5-triene-4-carboxylic acid], the figure is 6.49.
